Results published in US20230192720A1, “MACROCYCLIC COMPOUNDS” (ZENO MANAGEMENT, INC., priority 2019, published 2023).

System: NCI-H929 cells
Assay: NCI-H929 cell proliferation assay (CellTiter-Glo)
Format: cell-based
Details: 72 h compound treatment
Description: NCI-H929 Cell Proliferation Assay
Cell proliferation was measured using the CellTiter-Glo® Luminescent Cell Viability Assay. The assay involved the addition of a single reagent (CellTiter-Glo® Reagent) directly to cells cultured in serum-supplemented medium. NCI-H929 (ATCC CRL-9068) cells were cultured according to ATCC recommendations and were seeded at 3,000 cells per well.
Each compound evaluated was prepared as a DMSO stock solution (10 mM). Compounds were tested in duplicate on each plate, with a 10-point serial dilution curve (1:3 dilution). Compound treatment ([…]) was added from the compound dilution plate to the cell plate. The highest compound concentration was 10 μM (final), with a 0.1% final DMSO concentration. Plates were then incubated at 37° C., 5% CO2. After 72 h of compound treatment, cell plates were equilibrated at rt for approximately 30 mins. An equi-volume amount of CellTiter-Glo® Reagent (40 μL) was added to each well. Plates were mixed for 2 mins on an orbital shaker to induce cell lysis and then incubated at rt for 10 mins to stabilize the luminescent signal. Luminescence was recorded using an Envision plate reader according to CellTiter-Glo protocol. IC50 of each compound was calculated using GraphPad Prism by nonlinear regression analysis.

Structure (SMILES) | IC50 [nM]
CN1Cc2cc(n(C)n2)CCc2cc3c(c(c2)OCCCc2c(C(=O)O)n(C)c4c(c(Cl)ccc24)-c2c(nn4c2CCCC4)C1)NCCC3 (atropisomer, axis not shown; (Ra)) [Example 6A, (Ra)-(+)-(Z)-1^6-Chloro-1^1,6^1,4-trimethyl-2^4,2^5,2^6,2^7,9^1,9^2,9^3,9^4-octahydro-1^1H,6^1H-10-oxa-4-aza-9(6,8)-quinolina-2(3,2)-pyrazolo[1,5-a]pyridina-1(7,3)-indola-6(3,5)-pyrazolacyclotridecaphane-1^2-carboxylic acid] | ≤ 100
Cn1nc2cc1CSc1cc3c(c(c1)OCCCc1c(C(=O)O)n(C)c4c(c(Cl)ccc14)-c1c(nn4c1CCCC4)CNC2)NCCC3 (atropisomer, axis not shown) [Example 12B, (Sa)-(−)-(Z)-1^6-Chloro-1^1,6^1-dimethyl-2^4,2^5,2^6,2^7,9^1,9^2,9^3,9^4-octahydro-1^1H,6^1H-10-oxa-8-thia-4-aza-9(6,8)-quinolina-2(3,2)-pyrazolo[1,5-a]pyridina-1(7,3)-indola-6(3,5)-pyrazolacyclotridecaphane-1^2-carboxylic acid] | 100 to 1000
CN1Cc2cc(n(C)n2)CSc2cc3c(c(c2)OCCCc2c(C(=O)O)n(C)c4c(c(Cl)ccc24)-c2c(nn4c2CCCC4)C1)NCCC3 (atropisomer, axis not shown; (Ra)) [Example 4A, (Ra)-(+)-(Z)-1^6-Chloro-1^1,6^1,4-trimethyl-2^4,2^5,2^6,2^7,9^1,9^2,9^3,9^4-octahydro-1^1H,6^1H-10-oxa-8-thia-4-aza-9(6,8)-quinolina-2(3,2)-pyrazolo[1,5-a]pyridina-1(7,3)-indola-6(3,5)-pyrazolacyclotridecaphane-1^2-carboxylic acid] | ≥ 1000
CN1Cc2cc(n(C)n2)CSc2cc3c(c(c2)OCCCc2c(C(=O)O)n(C)c4c(c(Cl)ccc24)-c2c(nn4c2CCC4)C1)NCCC3 (atropisomer, axis not shown; (Sa)) [Example 3B, (Sa)-(−)-(Z)-1^6-Chloro-1^1,6^1,4-trimethyl-2^5,2^6,9^1,9^2,9^3,9^4-hexahydro-1^1H,2^4H,6^1H-10-oxa-8-thia-4-aza-9(6,8)-quinolina-1(7,3)-indola-2(3,2)-pyrrolo[1,2-b]pyrazola-6(3,5)-pyrazolacyclotridecaphane-1^2-carboxylic acid] | ≤ 100
CCn1nc(C)c2c1CSCc1cc(n(C)n1)CSc1cc3c(c(c1)OCCCc1c(C(=O)O)n(C)c4c-2c(Cl)ccc14)NCCC3 (atropisomer, axis not shown; (Ra)) [Example 14A, (Ra)-(+)-(Z)-1^6-Chloro-2^1-ethyl-1^1,2^3,6^1-trimethyl-9^1,9^2,9^3,9^4-tetrahydro-1^1H,2^1H,6^1H-10-oxa-4,8-dithia-9(6,8)-quinolina-1(7,3)-indola-2(4,5),6(3,5)-dipyrazolacyclotridecaphane carboxylic acid] | ≤ 100
CN1Cc2cc(n(C)n2)CSc2cc3c(c(c2)OCCCc2c(C(=O)O)n(C)c4c(c(Cl)ccc24)-c2c(nn4c2CCCC4)C1)NCCC3 (atropisomer, axis not shown; (Sa)) [Example 4B, (Sa)-(−)-(Z)-1^6-Chloro-1^1,6^1,4-trimethyl-2^4,2^5,2^6,2^7,9^1,9^2,9^3,9^4-octahydro-1^1H,6^1H-10-oxa-8-thia-4-aza-9(6,8)-quinolina-2(3,2)-pyrazolo[1,5-a]pyridina-1(7,3)-indola-6(3,5)-pyrazolacyclotridecaphane-1^2-carboxylic acid] | ≤ 100
Cc1nn(C23CC(C2)C3)c2c1-c1c(F)ccc3c(c(C(=O)O)n(C)c13)CCCOc1cc(cc3c1NCCC3)SCc1cc(nn1C)CSC2 (atropisomer, axis not shown; (Ra)) [Example 10A, (Ra)-(+)-(Z)-2^1-(Bicyclo[1.1.1]pentan-1-yl)-1^6-fluoro-1^1,2^3,6^1-trimethyl-9^1,9^2,9^3,9^4-tetrahydro-1^1H,2^1H,6^1H-10-oxa-4,8-dithia-9(6,8)-quinolina-1(7,3)-indola-2(4,5),6(3,5)-dipyrazolacyclotridecaphane-1^2-carboxylic acid] | ≥ 1000
CN1Cc2cc(n(C)n2)CSc2cc3c(c(c2)OCCCc2c(C(=O)O)n(C)c4c(c(Cl)ccc24)-c2c(nn4c2CCC4)C1)NCCC3 (atropisomer, axis not shown; (Ra)) [Example 3A, (Ra)-(+)-(Z)-1^6-Chloro-1^1,6^1,4-trimethyl-2^5,2^6,9^1,9^2,9^3,9^4-hexahydro-1^1H,2^4H,6^1H-10-oxa-8-thia-4-aza-9(6,8)-quinolina-1(7,3)-indola-2(3,2)-pyrrolo[1,2-b]pyrazola-6(3,5)-pyrazolacyclotridecaphane-1^2-carboxylic acid] | ≥ 1000
CCn1nc(C)c2c1CSCc1cc(n(C)n1)CSc1cc3c(c(c1)OCCCc1c(C(=O)O)n(C)c4c-2c(Cl)ccc14)NCCC3 (atropisomer, axis not shown; (Sa)) [Example 14B, (Sa)-(−)-(Z)-1^6-Chloro-2^1-ethyl-1^1,2^3,6^1-trimethyl-9^1,9^2,9^3,9^4-tetrahydro-1^1H,2^1H,6^1H-10-oxa-4,8-dithia-9(6,8)-quinolina-1(7,3)-indola-2(4,5),6(3,5)-dipyrazolacyclotridecaphane-1^2-carboxylic acid] | ≥ 1000
Cc1nn(C23CC(C2)C3)c2c1-c1c(F)ccc3c(c(C(=O)O)n(C)c13)CCCOc1cc(cc3c1NCCC3)SCc1cc(nn1C)CSC2 (atropisomer, axis not shown; (Sa)) [Example 10B, (Sa)-(−)-(Z)-2^1-(Bicyclo[1.1.1]pentan-1-yl)-1^6-fluoro-1^1,2^3,6^1-trimethyl-9^1,9^2,9^3,9^4-tetrahydro-1^1H,2^1H,6^1H-10-oxa-4,8-dithia-9(6,8)-quinolina-1(7,3)-indola-2(4,5),6(3,5)-dipyrazolacyclotridecaphane-1^2-carboxylic acid] | ≤ 100
CN1Cc2cc(n(C)n2)CCc2cc3c(c(c2)OCCCc2c(C(=O)O)n(C)c4c(c(Cl)ccc24)-c2c(nn4c2CCCC4)C1)NCCC3 (atropisomer, axis not shown; (Sa)) [Example 6B, (Sa)-(−)-(Z)-1^6-Chloro-1^1,6^1,4-trimethyl-2^4,2^5,2^6,2^7,9^1,9^2,9^3,9^4-octahydro-1^1H,6^1H-10-oxa-4-aza-9(6,8)-quinolina-2(3,2)-pyrazolo[1,5-a]pyridina-1(7,3)-indola-6(3,5)-pyrazolacyclotridecaphane-1^2-carboxylic acid] | ≥ 1000
CN1Cc2cc(n(C)n2)CCc2cc3c(c(c2)OCCCc2c(C(=O)O)n(C)c4c(c(Cl)ccc24)-c2c(nn4c2CCC4)C1)NCCC3 (atropisomer, axis not shown; (Ra)) [Example 5A, (Ra)-(+)-(Z)-1^6-Chloro-1^1,6^1,4-trimethyl-2^5,2^6,9^1,9^2,9^3,9^4-hexahydro-1^1H,2^4H,6^1H-10-oxa-4-aza-9(6,8)-quinolina-1(7,3)-indola-2(3,2)-pyrrolo[1,2-b]pyrazola-6(3,5)-pyrazolacyclotridecaphane-1^2-carboxylic acid] | ≤ 100

Same assay, conditions: Homo sapiens, NCI-H929, 72 h, 72 h compound treatment

Structure (SMILES) | IC50 [nM]
Cn1nc2cc1CSc1cc3c(c(c1)OCCCc1c(C(=O)O)n(C)c4c(c(F)ccc14)-c1c(nn4c1CCC4)CSC2)NCCC3 (atropisomer, axis not shown; (Ra)) [Example 7A, (Ra)-(+)-(Z)-1^6-Fluoro-1^1,6^1-dimethyl-2^5,2^6,9^1,9^2,9^3,9^4-hexahydro-1^1H,2^4H,6^1H-10-oxa-4,8-dithia-9(6,8)-quinolina-1(7,3)-indola-2(3,2)-pyrrolo[1,2-b]pyrazola-6(3,5)-pyrazolacyclotridecaphane-1^2-carboxylic acid] | 100 to 1000
CN1CCCc2cc3cc(c21)OCCCc1c(C(=O)O)n(C)c2c(c(Cl)ccc12)-c1c(nn2c1CCC2)CSCc1cc(n(C)n1)CS3 (atropisomer, axis not shown; (Ra)) [Example 13A, (Ra)-(+)-(Z)-1^6-Chloro-1^1,6^1,9^1-trimethyl-2^5,2^6,9^1,9^2,9^3,9^4-hexahydro-1^1H,2^4H,6^1H-10-oxa-4,8-dithia-9(6,8)-quinolina-1(7,3)-indola-2(3,2)-pyrrolo[1,2-b]pyrazola-6(3,5)-pyrazolacyclotridecaphane-1^2-carboxylic acid] | ≥ 1000
Cn1nc2cc1CSc1cc3c(c(c1)OCCCc1c(C(=O)O)n(C)c4c(c(Cl)ccc14)-c1c(nn4c1CCCC4)CSC2)NCCC3 (atropisomer, axis not shown; (Sa)) [Example 2B, (Sa)-(−)-(Z)-1^6-Chloro-1^1,6^1-dimethyl-2^4,2^5,2^6,2^7,9^1,9^2,9^3,9^4-octahydro-1^1H,6^1H-10-oxa-4,8-dithia-9(6,8)-quinolina-2(3,2)-pyrazolo[1,5-a]pyridina-1(7,3)-indola-6(3,5)-pyrazolacyclotridecaphane-1^2-carboxylic acid] | ≥ 1000
Cn1nc2cc1CSc1cc3c(c(c1)OCCCc1c(C(=O)O)n(C)c4c(c(Cl)ccc14)-c1c(nn4c1CCC4)CSC2)NCCC3 (atropisomer, axis not shown; (Sa)) [Example 1B, (Sa)-(−)-(Z)-1^6-Chloro-1^1,6^1-dimethyl-2^5,2^6,9^1,9^2,9^3,9^4-hexahydro-1^1H,2^4H,6^1H-10-oxa-4,8-dithia-9(6,8)-quinolina-1(7,3)-indola-2(3 ,2)-pyrrolo[1,2-b]pyrazola-6(3,5)-pyrazolacyclotridecaphane-1^2-carboxylic acid] | ≥ 1000
